{
  "source": "patent US8481536B2",
  "about": "“Benzotriazine inhibitors of kinases” (TargeGen, Inc., priority 2004, dated 2013)",
  "assay_type_in_all_cases": "biochemical",
  "key": {"Pdgfrβ": {"target": "Pdgfrβ (Homo sapiens (Human), UniProt P09619)", "sequence (P09619 33-1106)": "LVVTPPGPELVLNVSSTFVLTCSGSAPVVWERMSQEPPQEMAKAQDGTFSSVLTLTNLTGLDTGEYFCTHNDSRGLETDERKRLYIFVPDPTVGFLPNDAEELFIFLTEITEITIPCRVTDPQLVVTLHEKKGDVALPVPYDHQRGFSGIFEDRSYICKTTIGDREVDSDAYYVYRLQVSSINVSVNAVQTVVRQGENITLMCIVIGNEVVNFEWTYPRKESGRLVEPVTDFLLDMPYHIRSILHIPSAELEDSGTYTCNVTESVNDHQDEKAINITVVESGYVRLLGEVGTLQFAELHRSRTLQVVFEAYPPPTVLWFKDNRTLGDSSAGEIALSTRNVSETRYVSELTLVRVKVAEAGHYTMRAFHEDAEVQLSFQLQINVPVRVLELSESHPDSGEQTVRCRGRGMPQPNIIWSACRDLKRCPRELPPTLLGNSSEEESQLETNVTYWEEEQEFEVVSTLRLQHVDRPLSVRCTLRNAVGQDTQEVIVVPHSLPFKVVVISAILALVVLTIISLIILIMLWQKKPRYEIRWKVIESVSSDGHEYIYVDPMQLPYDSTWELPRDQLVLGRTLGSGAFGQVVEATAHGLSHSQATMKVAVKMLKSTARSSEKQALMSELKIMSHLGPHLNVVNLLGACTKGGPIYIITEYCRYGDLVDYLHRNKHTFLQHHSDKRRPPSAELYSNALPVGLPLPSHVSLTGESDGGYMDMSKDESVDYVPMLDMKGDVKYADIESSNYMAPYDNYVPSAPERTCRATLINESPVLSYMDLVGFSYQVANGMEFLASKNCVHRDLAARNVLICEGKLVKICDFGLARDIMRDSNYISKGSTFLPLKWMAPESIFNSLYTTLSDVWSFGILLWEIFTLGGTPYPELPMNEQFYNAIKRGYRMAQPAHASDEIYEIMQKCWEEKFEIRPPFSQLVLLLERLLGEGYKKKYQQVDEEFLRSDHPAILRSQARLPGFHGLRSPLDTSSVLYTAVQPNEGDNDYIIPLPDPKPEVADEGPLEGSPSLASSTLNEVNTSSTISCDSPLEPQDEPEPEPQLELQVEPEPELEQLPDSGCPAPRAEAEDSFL", "test": "Pdgfrβ kinase inhibition in vitro (luciferase-based residual ATP)", "details": "500 nM ATP, PTK2 peptide, 60 minutes at 37 C; read-out: PDGFR IC50", "experimental": "(§1) The ability of compounds of the present invention to inhibit the activity of three groups of kinases was tested. Kinases tested included the src family (primarily src and yes), some angiogenic growth factor receptors (Fgfr1, Vegfr, and Pdgfrβ) and the ephrin, EphB4. All kinase reactions were conducted in 96-well plates with a final reaction volume of 50 ul.\nPdgfrβ (0.16 ug/well, Panvera/Invitrogen) 500 nM ATP and the PTK2 peptide (700 uM) were combined with compound and reaction buffer as noted above for src. The reaction was incubated for 60 minutes at 37 C, and the residual ATP concentration was determined using the luciferase-based technique also noted above.\n(§2) The test results for inhibition of Src kinase are presented in Table 1, and the test results for inhibition of some other kinases (i.e., Yes, EphB4, and Pdgfrβ) are presented in Table 2."}, "Recombinant human c-Src": {"target": "Recombinant human c-Src (Homo sapiens (Human), UniProt P12931)", "sequence (P12931 whole entry, looked up)": "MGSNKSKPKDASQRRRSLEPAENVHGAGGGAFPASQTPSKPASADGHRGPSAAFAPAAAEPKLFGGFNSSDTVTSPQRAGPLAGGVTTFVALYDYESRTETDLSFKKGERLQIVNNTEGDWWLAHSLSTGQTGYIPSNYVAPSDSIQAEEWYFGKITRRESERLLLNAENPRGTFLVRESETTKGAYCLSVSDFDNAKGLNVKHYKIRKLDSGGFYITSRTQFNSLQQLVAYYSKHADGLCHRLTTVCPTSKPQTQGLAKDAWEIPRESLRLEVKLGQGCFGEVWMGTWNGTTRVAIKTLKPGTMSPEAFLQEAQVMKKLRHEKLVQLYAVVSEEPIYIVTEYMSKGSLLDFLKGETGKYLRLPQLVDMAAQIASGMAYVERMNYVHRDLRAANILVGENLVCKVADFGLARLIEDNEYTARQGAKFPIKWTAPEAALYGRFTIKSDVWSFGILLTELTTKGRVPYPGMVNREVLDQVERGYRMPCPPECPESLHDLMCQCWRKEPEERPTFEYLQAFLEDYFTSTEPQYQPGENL", "test": "Src kinase inhibition in vitro (luciferase-based residual ATP, KinaseGlo)", "details": "ATP 3 μM, PTK2 substrate, 90 minutes at room temperature", "experimental": "as §1\n(§3) After reacting for about 90 minutes at room temperature, residual ATP was determined using a luciferase-based assay (KinaseGlo, Promega Corp.) as a measure of kinase activity. Data from four wells were then averaged and used to determine IC50 values for the test compounds (Prism software package, GraphPad Software, San Diego Calif.).\nas §2"}, "EphB4": {"target": "EphB4 (Homo sapiens (Human), UniProt P54760)", "sequence (P54760 16-987)": "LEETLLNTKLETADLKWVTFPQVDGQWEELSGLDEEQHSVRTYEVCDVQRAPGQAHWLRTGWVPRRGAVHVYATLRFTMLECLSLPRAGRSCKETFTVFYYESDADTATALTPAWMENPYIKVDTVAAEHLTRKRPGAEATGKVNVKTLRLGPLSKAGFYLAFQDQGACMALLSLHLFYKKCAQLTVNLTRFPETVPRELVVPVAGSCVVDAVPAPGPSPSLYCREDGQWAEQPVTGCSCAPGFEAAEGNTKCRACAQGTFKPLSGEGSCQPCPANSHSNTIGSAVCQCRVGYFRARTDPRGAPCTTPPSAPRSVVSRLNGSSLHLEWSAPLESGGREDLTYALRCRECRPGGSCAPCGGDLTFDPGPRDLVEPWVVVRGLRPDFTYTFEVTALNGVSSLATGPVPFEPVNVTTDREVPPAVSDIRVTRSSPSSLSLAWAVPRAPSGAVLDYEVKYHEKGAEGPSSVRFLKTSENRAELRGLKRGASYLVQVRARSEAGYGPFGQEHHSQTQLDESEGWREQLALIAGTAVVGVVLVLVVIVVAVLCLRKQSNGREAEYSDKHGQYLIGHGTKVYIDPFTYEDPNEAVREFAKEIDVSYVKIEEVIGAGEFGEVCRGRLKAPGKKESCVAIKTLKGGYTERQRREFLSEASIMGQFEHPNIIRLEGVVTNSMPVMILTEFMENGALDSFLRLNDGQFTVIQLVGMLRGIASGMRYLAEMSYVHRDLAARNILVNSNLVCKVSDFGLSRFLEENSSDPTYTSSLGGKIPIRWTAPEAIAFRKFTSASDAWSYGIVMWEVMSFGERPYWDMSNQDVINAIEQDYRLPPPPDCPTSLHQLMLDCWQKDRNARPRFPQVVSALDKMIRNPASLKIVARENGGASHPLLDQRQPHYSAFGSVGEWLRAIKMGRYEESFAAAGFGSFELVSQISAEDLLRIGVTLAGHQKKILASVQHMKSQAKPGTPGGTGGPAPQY", "test": "EphB4 kinase inhibition in vitro (luciferase-based residual ATP)", "details": "6 uM ATP, poly(glu4tyr), 60 minutes at 37 C", "experimental": "as §1, §2"}, "Recombinant human Yes": {"target": "Recombinant human Yes (Homo sapiens (Human), UniProt P07947)", "sequence (P07947 whole entry)": "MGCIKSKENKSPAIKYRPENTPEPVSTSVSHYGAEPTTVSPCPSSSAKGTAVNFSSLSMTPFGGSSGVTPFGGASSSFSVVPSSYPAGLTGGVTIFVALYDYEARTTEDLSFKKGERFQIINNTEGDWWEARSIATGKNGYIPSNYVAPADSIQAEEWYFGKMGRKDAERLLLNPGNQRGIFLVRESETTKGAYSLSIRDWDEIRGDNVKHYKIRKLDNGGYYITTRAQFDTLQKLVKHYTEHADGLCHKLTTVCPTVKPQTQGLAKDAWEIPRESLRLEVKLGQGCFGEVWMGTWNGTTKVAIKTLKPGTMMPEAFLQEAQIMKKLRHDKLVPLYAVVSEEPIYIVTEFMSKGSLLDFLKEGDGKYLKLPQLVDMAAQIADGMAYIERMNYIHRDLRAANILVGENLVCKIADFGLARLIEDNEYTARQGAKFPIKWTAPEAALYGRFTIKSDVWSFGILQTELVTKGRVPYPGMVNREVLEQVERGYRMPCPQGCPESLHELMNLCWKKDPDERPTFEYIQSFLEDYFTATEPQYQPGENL", "test": "Yes kinase inhibition in vitro (luciferase-based residual ATP, KinaseGlo)", "details": "ATP 3 μM, PTK2 substrate, 90 minutes at room temperature", "experimental": "as §1, §3, §2"}},
  "data": [
    {"smiles": "CC(=O)Nc1cc(-c2c(C)cccc2C)cc2nnc(Nc3ccc(OCCN4CCCC4)cc3)nc12", "note": "[N-{7-(2,6-dimethyl-phenyl)-3-[4-(2-pyrrolidin-1-yl-ethoxy)-phenylamino]-benzo[1,2,4]triazin-5-yl}-acetamide]", "values": [
      {"measurement": "IC50", "setting": "Pdgfrβ", "result": 0.0115, "unit": "µM"},
      {"measurement": "IC50", "setting": "Recombinant human c-Src", "result": 0.0068, "unit": "µM"}
    ]},
    {"smiles": "Cc1cccc(C)c1-c1cc(NS(C)(=O)=O)c2nc(Nc3ccc(OCCN4CCCC4)cc3)nnc2c1", "note": "[N-{7-(2,6-dimethyl-phenyl)-3-[4-(2-pyrrolidin-1-yl-ethoxy)-phenylamino]-benzo[1,2,4]triazin-5-yl}-methanesulfonamide]", "values": [
      {"measurement": "IC50", "setting": "Pdgfrβ", "result": 0.0157, "unit": "µM"},
      {"measurement": "IC50", "setting": "Recombinant human c-Src", "result": 0.0204, "unit": "µM"}
    ]},
    {"smiles": "Cc1cc(-c2cc(O)ccc2Cl)cc2nnc(Nc3ccc(OCCN4CCCC4)cc3)nc12", "note": "[[7-(2-chloro-5-hydroxy-phenyl)-5-methyl-benzo[1,2,4]triazin-3-yl]-[4-(2-pyrrolidine-1-yl-ethoxy)-phenyl]-amine]", "values": [
      {"measurement": "IC50", "setting": "EphB4", "result": 0.0159, "unit": "µM"},
      {"measurement": "IC50", "setting": "Pdgfrβ", "result": 0.0011, "unit": "µM"},
      {"measurement": "IC50", "setting": "Recombinant human Yes", "result": 0.0005, "unit": "µM"},
      {"measurement": "IC50", "setting": "Recombinant human c-Src", "result": 0.0016, "unit": "µM"}
    ]},
    {"smiles": "Cc1cc2nc(Nc3ccc(S(=O)(=O)NCCN4CCCC4)cc3)nnc2cc1-c1c(C)cccc1C", "note": "[4-[7-(2,6-dimethyl-phenyl)-6-methyl-benzo[1,2,4]triazin-3-ylamino]-N-(2-pyrrolidin-1-yl-ethyl)-benzenesulfonamide]", "values": [
      {"measurement": "IC50", "setting": "Pdgfrβ", "result": 0.0481, "unit": "µM"},
      {"measurement": "IC50", "setting": "Recombinant human c-Src", "result": 0.0105, "unit": "µM"}
    ]}
  ]
}
